Experimental data taken from US9808439B2 (Macau University of Science and Technology, priority 2015, dated 2017).
“Also recorded” adds a separate entry of the source. Read-outs that look alike come from different tables or passages of the source.

Key:
A2780/T cells [1] = assay: Combination index, Chou-Talalay method (CalcuSyn); type: cell-based, human; settings: Homo sapiens, read-out: Dose tangeretin at Fa 0.5 (ED50), CalcuSyn simulation, alone or in combination
Method: Combination index (CI) was calculated to quantitatively depict synergistic ([…], additive (CI=1), or antagonistic (CI>1) effect. With the use of CalcuSyn software v. 2.1 (Bio-soft), synergy is further refined as synergism (combination index=0.3-0.7), strong synergism (combination index=0.1-0.3), and very strong synergism (combination index<0.1).

A2780/T cells [2] = assay: Apoptosis by Annexin-V/PI double staining; type: cell-based, human
Method: After treatment, 1×10^6 cells were collected, washed and suspended in 100 μl of binding buffer (10 mM N-2-hydroxyethylpiperazine-N,-2-ethanesulfonic acid/NaOH, 140 mM NaCl, 2.5 mM CaCl2, pH 7.4). Apoptotic cells were identified by double supravital staining with 5 μl recombinant FITC (fluorescein isothiocyanate)-conjugated Annexin-V and 5 μl PI (50 μg/ml). The cells were stained for […] at room temperature in the dark, and analyzed by fluorescence-activated cell sorting cater-plus flow cytometry. Data acquisition and analysis were performed in BD FACS Aria with FlowJo software.

A2780/T cells [3] = assay: Cell cycle analysis by flow cytometry in A2780/T; type: cell-based, human; settings: tangeretin 7.53 μM alone
Method: A2780/T cells were harvested after 24-hours, 48-hour, or 72-hour treatment and washed twice with ice-cold PBS. The cells were fixed and permeabilized with 70% ice-cold ethanol overnight at 4° C. or −20° C. for 2 h. After one additional wash in PBS, cells were stained with a staining solution containing PI ([…]) and RNase A (250 μg/ml) for […] at room temperature. They were then pelleted, washed and suspended in PBS to a final concentration of 1×10^6/ml and analyzed by flow cytometry (BD FACS Aria, BD Biosciences, San Jose, Calif.).

A2780/T cells [4] = assay: Intracellular accumulation of DOX and Flutax-2 in A2780/T; type: cell-based, human; settings: 8 h, 7.53 μM tangeretin or 20 μM QND
Method: cells (5×10^6) were cultured on the cover glass (ISO LAB 20×20 mm). […] After treatment, cells were fixed in 4 wt % formaldehyde (Sigma-Aldrich). Nuclear DNA was stained with 1 μg/mL blue-fluorescent DAPI (1 mg/mL in H2O stock solution; Invitrogen D1306). One drop of fluorescent preservation solution (fluorsave reagent, CALBIOCHEM) was added before observation. Imaging was carried out for comparing the intracellular accumulation of DOX and flutax-2 with a Fluorescence Microscopy (Leica DM2500, Leica, Germany). […] Cells were detached, re-suspended in 500 μl of PBS after washed twice with cold PBS, and analyzed by flow cytometry (BD FACS Aria, BD Biosciences, San Jose, Calif.). Excitation and emission wavelengths (nm) used for DOX and flutax-2 were as follows: 480 to 585; and 496 to 524.

A2780 cells = assay: Intracellular accumulation of DOX and Flutax-2 in A2780; type: cell-based, human; settings: parental A2780, 7.53 μM tangeretin, 8 h
Method: A2780 or A2780/T cells (5×10^6) were cultured on the cover glass (ISO LAB 20×20 mm). […] After treatment, cells were fixed in 4 wt % formaldehyde (Sigma-Aldrich). Nuclear DNA was stained with 1 μg/mL blue-fluorescent DAPI (1 mg/mL in H2O stock solution; Invitrogen D1306). One drop of fluorescent preservation solution (fluorsave reagent, CALBIOCHEM) was added before observation. Imaging was carried out for comparing the intracellular accumulation of DOX and flutax-2 with a Fluorescence Microscopy (Leica DM2500, Leica, Germany).
Cells were detached, re-suspended in 500 μl of PBS after washed twice with cold PBS, and analyzed by flow cytometry (BD FACS Aria, BD Biosciences, San Jose, Calif.). Excitation and emission wavelengths (nm) used for DOX and flutax-2 were as follows: 480 to 585; and 496 to 524. Quinidine (QND, 20 μM), a known ABCB1 inhibitor, was used as a positive control.

[5] = molecular target: T1, recombinant human ABCB1 membranes (Homo sapiens, UniProt P08183); assay: ABCB1 ATPase activity assay (Pgp-Glo); type: biochemical
T1 construct: purchased Promega
Method: Sodium orthovanadate (Na3VO4) was used as an ABCB1 ATPase inhibitor. […] Luminescence was initiated by ATP detection buffer. The plate (white opaque 96-well, corning, USA) was further incubated at room temperature for […] to develop luminescent signal, and was read with luminometer (infinite M200 PRO,TECAN, Switzerland).

[6] = test system: MDR1 mRNA / ABCB1 protein in A2780/T cells; assay: RT-PCR and Western blot of ABCB1 expression; type: cell-based, human; settings: tangeretin 0.83-7.53 μM, 48 hours
Method: RT-PCR was performed to evaluate MDR1 mRNA expression. mRNA from cell lysates were purified by binding to poly(dT) magnetic beads (Life technologies) and reverse transcribed by using SuperScript II (Life technologies). Standard quantitative RT-PCR was performed in duplicates at least two to three times by using SYBR Green (Molecular Probes) protocols on the ViiA™ 7 Real-Time PCR System (Life technologies). The primer sequences: 5′-[…]-3′ (SEQ ID […] NO:1) and 3′-[…]-5′ (SEQ ID NO:2) for MDR1, and 5′-[…]-3′ (SEQ ID NO:3) and 3′-[…]-[…]-5′ (SEQ ID NO:4) for control gene eukaryotic translation initiation factor (TIF). RT-PCR data was normalized by measuring average cycle threshold (Ct) ratios between candidate genes and control gene TIF.
The total cellular samples were harvested and rinsed twice with ice-cold PBS buffer. Cell extracts were lysed in RIPA buffer (50 mM Tris (pH 7.4), 150 mM NaCl, 1% Triton X-100, 1% sodium deoxycholate, 0.1% SDS, sodium orthovanadate, sodium fluoride and EDTA) containing protease inhibitor cocktails (Roche Life Science, USA). Protein concentration was determined using the BCA protein assay kit. Equal amounts of cell lysates were resolved by SDS-PAGE and subsequently electrophoretically transferred onto PVDF membranes (Millipore, Darmstadt, Germany). […]

p53 = assay: Western blot of p53 expression; type: cell-based, human; settings: tangeretin at various concentrations, 48 hours, Western blot
Method: The total cellular samples were harvested and rinsed twice with ice-cold PBS buffer. Cell extracts were lysed in RIPA buffer (50 mM Tris (pH 7.4), 150 mM NaCl, 1% Triton X-100, 1% sodium deoxycholate, 0.1% SDS, sodium orthovanadate, sodium fluoride and EDTA) containing protease inhibitor cocktails (Roche Life Science, USA). Protein concentration was determined using the BCA protein assay kit. Equal amounts of cell lysates were resolved by SDS-PAGE and subsequently electrophoretically transferred onto PVDF membranes (Millipore, Darmstadt, Germany). After blocking in tris-buffered saline containing 0.1% of Tween20 (TBST) with 5% (w/v) skim milk (Nestle Carnation, New Zealand) for 2 h at room temperature, the membranes were incubated with primary and secondary antibodies and subsequently visualized with an enhanced chemiluminescence detection kit (Thermo Scientific™ SuperSignal™ West Pico Chemiluminescent Substrate, USA). β-Actin was used as the loading control for the experimental data analysis.

[7] = molecular target: P-gp (ABCB1 transporter) in Caco-2 cells (Homo sapiens, UniProt P08183)
[8] = human, plasma; cited from earlier work
[9] = rat, plasma; cited from earlier work
in vitro [10] = settings: human, A2780/T cells
Method: (§1) Sulphorhodamine B (SRB) assays were carried out as previously described to assess cell density, based on sensitive measure of total cellular protein, which performed similarly compared with other proliferation assays such as MTT assay. Briefly, cells were seeded into flat bottomed 96-well plates at an initial density of 7.5×10^3 per well before treatment. […] After removing the medium, cells were fixed in 10% trichloroacetic acid for 1 h at 4° C. and then washed with water five times. 0.4% SRB dissolved in 1% v/v acetic acid was added and incubated 30 mm for staining. The cells were quickly washed with 1% acetic acid and left to dry overnight. The protein bound SRB was solubilized by adding 200 μl 10 mM Tris buffer per well and measured at wavelengths 490 nm using a plate reader (Spectra MAX 250; Molecular Devices, Sunnyvale, Calif.).

in vitro [11] = settings: human, A2780 cells
A2780/T cells [12] = assay: SRB cell cytotoxicity assay in A2780/T; settings: tangeretin at 7.53 μM, all cell lines
Method: as §1

T1 sequence (P08183 whole entry): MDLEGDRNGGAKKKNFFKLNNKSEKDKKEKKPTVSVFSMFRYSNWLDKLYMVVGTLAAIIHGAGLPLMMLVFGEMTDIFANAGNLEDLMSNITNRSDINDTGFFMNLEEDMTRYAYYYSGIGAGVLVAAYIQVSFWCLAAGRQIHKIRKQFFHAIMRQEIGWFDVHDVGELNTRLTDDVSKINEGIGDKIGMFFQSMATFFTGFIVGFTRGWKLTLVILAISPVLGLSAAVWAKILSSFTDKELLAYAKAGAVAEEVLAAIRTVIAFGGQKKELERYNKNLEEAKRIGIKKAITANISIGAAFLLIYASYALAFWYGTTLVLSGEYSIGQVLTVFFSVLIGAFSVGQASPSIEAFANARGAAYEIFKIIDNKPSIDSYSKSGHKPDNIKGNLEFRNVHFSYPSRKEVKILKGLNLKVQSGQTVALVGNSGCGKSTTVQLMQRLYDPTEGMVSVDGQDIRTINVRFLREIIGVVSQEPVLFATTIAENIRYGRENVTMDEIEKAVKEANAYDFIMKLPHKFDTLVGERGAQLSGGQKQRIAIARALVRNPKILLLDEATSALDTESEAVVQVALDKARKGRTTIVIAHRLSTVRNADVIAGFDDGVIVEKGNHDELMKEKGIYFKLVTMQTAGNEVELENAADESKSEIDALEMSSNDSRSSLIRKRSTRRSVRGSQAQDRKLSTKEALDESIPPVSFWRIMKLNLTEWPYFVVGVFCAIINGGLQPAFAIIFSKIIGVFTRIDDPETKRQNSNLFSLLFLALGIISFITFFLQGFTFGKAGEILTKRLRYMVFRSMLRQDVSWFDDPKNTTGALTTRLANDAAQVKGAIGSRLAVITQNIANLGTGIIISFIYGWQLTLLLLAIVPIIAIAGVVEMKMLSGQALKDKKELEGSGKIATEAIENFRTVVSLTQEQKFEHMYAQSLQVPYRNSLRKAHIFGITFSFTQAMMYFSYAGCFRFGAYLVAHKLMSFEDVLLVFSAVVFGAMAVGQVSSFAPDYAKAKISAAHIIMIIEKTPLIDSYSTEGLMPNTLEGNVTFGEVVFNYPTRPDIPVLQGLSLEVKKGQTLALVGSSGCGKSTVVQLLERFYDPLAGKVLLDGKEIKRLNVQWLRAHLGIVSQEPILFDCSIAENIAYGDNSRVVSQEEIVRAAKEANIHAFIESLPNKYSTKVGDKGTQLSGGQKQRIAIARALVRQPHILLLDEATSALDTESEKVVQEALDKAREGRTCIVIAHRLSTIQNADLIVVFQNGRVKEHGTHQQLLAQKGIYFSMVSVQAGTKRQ
Chain of P-gp (ABCB1 transporter) in Caco-2 cells (P08183 whole entry): as above

EC50 (A2780/T cells [1]): 67.5 µM | IC50 ([5]; 200 μM verapamil, read-out: IC50 for inhibiting verapamil-stimulated P-gp ATPase activity): 7.87 µM | EC50 ([5]; recombinant human ABCB1 membranes, 37° C., 40 min, read-out: EC50 for stimulating P-gp ATPase activity): 11.6 µM | maximal stimulation of ATPase activity ([5]; relative to the basal activity): 3 fold | inhibitory effect on efflux compared with 20 μM QND [7]: more potent than that of QND | inhibitory effect on efflux compared with 20 μM QND ([7]; human, 2 h, 2.51 μM): stronger than that of 20 μM QND | IC50 (in vitro [10]): 36.4 µM | IC50 (in vitro [11]): 35.6 µM
Compound: COc1ccc(-c2cc(=O)c3c(OC)c(OC)c(OC)c(OC)c3o2)cc1 [Tangeretin, 5,6,7,8,4′-pentamethoxyflavone]
apoptosis induction, single treatment (A2780/T cells [2]; 7.53 μM tangeretin or 0.94 μM PTX alone): did not show apoptosis induction | apoptosis induced by 0.94 μM PTX (A2780/T cells [2]; with 0.83, 2.51 and 7.53 μM tangeretin, A2780/T): significantly increase apoptosis | effect on the cell cycle (A2780/T cells [3]): no effect | intracellular accumulations of DOX and Flutax-2 (A2780/T cells [4]): remarkably enhanced; also recorded: higher than that of untreated A2780/T | DOX and Flutax-2 levels (A2780 cells): did not significantly alter; also recorded: no effect | mRNA or protein level of ABCB1 [6]: did not influence | mRNA or protein level of ABCB1 ([6]; listed as tangeretin): did not alter | p53 expression (p53): unregulated the p53 expression | Cmax [8]: 1000 to 5000 nM | Cmax [9]: 1000 to 5000 nM | cells survived (A2780/T cells [12]): more than 90%
